Experimental data: PMC4354731 (Biochimica et biophysica acta, 2013)

What was measured:
[1] = molecular target: fumarate reductase (FrdABCD), FrdB subunit (Escherichia coli, UniProt P0A8Q0+P0A8Q3+P0AC47); assay: fluorescence quench titration in enriched membranes; assay type: binding
[2] = molecular target: fumarate reductase (FrdABCD), FrdB subunit (Escherichia coli, UniProt P0A8Q0+P0A8Q3+P0AC47, P0AC47:K229L); assay: biochemical
[3] = molecular target: fumarate reductase (FrdABCD), FrdB subunit (Escherichia coli, UniProt P0A8Q0+P0A8Q3+P0AC47, P0AC47:K229R); assay: biochemical
[4] = molecular target: fumarate reductase (FrdABCD), FrdB subunit (Escherichia coli, UniProt P0A8Q0+P0A8Q3+P0AC47, P0AC47:K229E); assay: biochemical
[5] = molecular target: fumarate reductase (FrdABCD), FrdB subunit (Escherichia coli, UniProt P0A8Q0+P0A8Q3+P0AC47, P0AC47:S204R); assay: biochemical

SMILES: CCCCCCCc1cc(O)c2ccccc2[n+]1[O-] [HOQNO, 2-n-heptyl-4-hyroxyquinoline-N-oxide]
- Kd [1]: 5 nM
- Kd [2]: 110 nM
- Kd [3]: 80 nM
- Kd [4]: 110 nM
- Kd [5]: 5 nM
